Article PMC8389915, “Synthesis and Preclinical Validation of Novel Indole Derivatives as a GPR17 Agonist for Glioblastoma Treatment” (Journal of Medicinal Chemistry, 2021)

Target: G protein-coupled receptor 17 (GPR17) (Homo sapiens, UniProt Q13304)
Sequence (Q13304 whole entry): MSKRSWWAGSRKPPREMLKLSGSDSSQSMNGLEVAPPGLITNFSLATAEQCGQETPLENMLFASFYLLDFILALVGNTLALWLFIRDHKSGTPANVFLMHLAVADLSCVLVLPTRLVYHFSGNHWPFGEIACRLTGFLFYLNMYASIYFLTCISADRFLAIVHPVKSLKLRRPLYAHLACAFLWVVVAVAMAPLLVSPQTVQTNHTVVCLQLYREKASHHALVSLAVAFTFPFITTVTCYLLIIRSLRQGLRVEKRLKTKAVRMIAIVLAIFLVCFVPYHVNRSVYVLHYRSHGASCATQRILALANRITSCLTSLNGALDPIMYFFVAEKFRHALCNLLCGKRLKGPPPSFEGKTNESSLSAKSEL

O=C(Nc1ccccc1)Oc1cc(OC(=O)Nc2ccccc2)c2c(c1)N(C(c1ccc(F)cc1)c1cccc(Cl)c1O)CC2 (stereo not shown) [CHBC, 1-((3-chloro-2-hydroxyphenyl)(4-fluorophenyl)methyl)indoline-4,6-diyl bis(phenylcarbamate)]
EC50: 19.2 µM
